# Experimental data: PMC3435245, “D-Alanylation of Lipoteichoic Acids Confers Resistance to Cationic Peptides in Group B Streptococcus by Increasing the Cell Wall Density” (PLoS Pathogens, 2012)
# Where a SMILES comes first, the peptide text is derived from it. [ ]: non-standard residue; d: D form.
# Legend:
# [1] = RP-HPLC hydrophobicity (% AcN at elution); assay type: physicochemical; conditions: chromatographic, C4 reverse analytical column; eluted in 40 min, linear gradient of acetonitrile 30 to 70% v/v in water containing TFA (0.05% v/v)
# Description: The procedure conducted as described previously. Briefly, peptides were synthesized using the Fmoc solid phase method on Rink amide resin ([…]). For fluorescent labeling of the N-terminus of the peptides, resin-bound peptides were treated with NBD or rhodamine dissolved in dimethyl formamide (DMF), washed thoroughly with DMF and then with methylene chloride, dried and then cleaved. […] The peptides were subjected to amino acid and mass spectrometry analysis to confirm their composition.
# [2] = tested on: GBS NEM316 WT strain; assay type: cell-based, Streptococcus agalactiae; conditions: Todd-Hewitt broth with 100 mM HEPES, 2×10^6 CFU, 96-well polypropylene microplate, overnight 37°C, OD600 nm; average of triplicate measurements
# Description: (§1) The MICs of each antimicrobial peptide were tested in Todd-Hewitt broth (THB) buffered with 100 mM HEPES in 96-well polypropylene microplates (Costar, Cambridge, MA) by a dilution method. Bacteria (2×10^6 CFU) were added in triplicates to wells containing increasing concentrations of the antimicrobial peptides. Plates were incubated at 37°C with shaking overnight and then read (OD600 nm) using microplate reader (Labsystems Multiskanat) for bacterial growth. The MICs90 was considered to be the peptide concentration that inhibited 90% growth.
# [3] = tested on: GBS ΔdltA mutant; test: MIC90 by dilution method, GBS ΔdltA; assay type: cell-based, Streptococcus agalactiae; conditions: Todd-Hewitt broth with 100 mM HEPES, 2×10^6 CFU, 96-well polypropylene microplate, overnight 37°C, OD600 nm; average of triplicate measurements
# Description: as §1
# [4] = tested on: GBS ΔmprF mutant; test: MIC90 by dilution method, GBS ΔmprF; assay type: cell-based, Streptococcus agalactiae; conditions: Todd-Hewitt broth with 100 mM HEPES, 2×10^6 CFU, 96-well polypropylene microplate, overnight 37°C, OD600 nm; average of triplicate measurements
# Description: as §1
# [5] = tested on: GBS Δlgt Δlsp mutant; test: MIC90 by dilution method, GBS Δlgt Δlsp; assay type: cell-based, Streptococcus agalactiae; conditions: Todd-Hewitt broth with 100 mM HEPES, 2×10^6 CFU, 96-well polypropylene microplate, overnight 37°C, OD600 nm; average of triplicate measurements
# Description: as §1
# [6] = tested on: GBS ΔcpsD mutant; test: MIC90 by dilution method, GBS ΔcpsD; assay type: cell-based, Streptococcus agalactiae; conditions: Todd-Hewitt broth with 100 mM HEPES, 2×10^6 CFU, 96-well polypropylene microplate, overnight 37°C, OD600 nm; average of triplicate measurements
# Description: as §1
# [7] = tested on: GBS ΔsrtA mutant; test: MIC90 by dilution method, GBS ΔsrtA; assay type: cell-based, Streptococcus agalactiae; conditions: Todd-Hewitt broth with 100 mM HEPES, 2×10^6 CFU, 96-well polypropylene microplate, overnight 37°C, OD600 nm; average of triplicate measurements
# Description: as §1
# [8] = tested on: GBS WT and dltA strains; test: SYTOX green uptake assay (membrane perforation); assay type: cell-based, Streptococcus agalactiae; conditions: 30 min exposure, 1 µM SYTOX green, sodium phosphate buffer 20 mM pH 7.4, excitation 485 nm, emission 520 nm; triplicates
# Text: To determine whether altered susceptibility to CAMPs correlates with changes in membrane permeability, we measured the entrance of the cationic dye SYTOX green into the WT and dltA strains. SYTOX green cannot enter intact bacteria unless the membrane is disrupted by external compounds. Upon penetration into bacteria and binding to intracellular nucleic acids, its signal increases drastically. A dose-dependent enhancement of signal intensity was found following exposure to selected CAMPs.
# Figure 2 Susceptibility of GBS strains to perforation by CAMPs. Peptide-dependent influx of the vital dye SYTOX green following 30 min exposure of GBS to magainin 2 (A), LL-37 (B), 5D-K6L9 (C) and K5L7 (D). Solid lines represent the WT strain whereas dashed lines represent the dltA muatnt. All readings were normalized by subtracting the basal fluorescence of the dye. Data are means ± SD of triplicate measurements.
# Bacteria were washed twice, resuspended in sodium phosphate buffer (SPB, 20 mM, pH 7.4), and incubated with 1 µM SYTOX green for 20 min in the dark with agitation. Bacteria were added to a 96 well black plate (Nunc, Denmark) containing increasing concentrations of CAMPs and the increase in fluorescence, due to penetration and binding of the dye to intracellular DNA, was immediately monitored (excitation of 485 nm and emission of 520 nm). […]
compound,measurement,setting,value
CC(C)C[C@H](NC(=O)[C@H](CC(C)C)NC(=O)[C@@H](CCCCN)NC(=O)[C@H](CC(C)C)NC(=O)[C@H](CC(C)C)NC(=O)[C@H](CCCCN)NC(=O)[C@@H](CCCCN)NC(=O)[C@@H](CC(C)C)NC(=O)[C@H](CC(C)C)NC(=O)[C@@H](CCCCN)NC(=O)[C@H](CCCCN)NC(=O)[C@H](CC(C)C)NC(=O)[C@@H](CC(C)C)NC(=O)[C@H](CCCCN)NC(=O)[C@@H](N)CC(C)C)C(N)=O [5D-K6L9] (H-LK[dL]LK[dK]L[dL][dK]KLL[dK]LL-NH2; N-terminus assumed),Hydrophobicity (% AcN),[1],55.6 % AcN
same,"MIC90, WT",[2],4.4 µM
same,"MIC90, ΔdltA",[3],2.2 µM
same,"MIC90, ΔmprF",[4],4.4 µM
same,"MIC90, Δlgt Δlsp",[5],4.4 µM
same,"MIC90, ΔcpsD",[6],4.4 µM
same,"MIC90, ΔsrtA",[7],4.4 µM
same,"SYTOX green influx signal, dltA mutant compared to WT",[8],similarly active on both strains
